In US10125134B2 (Mirati Therapeutics, Inc., priority 2016, dated 2018):
Counter-ions that a name gives are not always drawn. Like-named read-outs stand apart in the source and are kept apart here.

Key:
[1] = test system: NCI-H358 cells (express KRas G12C), Phospho-ERK; test: Cellular inhibition of KRas G12C: Phospho-ERK in NCI-H358 cells; type: cell-based; conditions: pERK(Thr202/Tyr204) normalized with GAPDH, NCI-H358 cells, 3 hours, read-out: IC50
Outline: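 IC50 derived by 4-parameter fit of GAPDH-normalized pERK(Thr202/Tyr204) signal, as percent of DMSO control. Signal came from in-cell immunodetection with infrared secondaries after 3 h compound exposure of KRas G12C NCI-H358 cells at 0.5% DMSO.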

KRas G12C = KRas G12C (Homo sapiens, UniProt P01116, C118S/C51S/C80L/G12C); test: KRas G12C Modification Assay (LCMS detection of covalent adduct); type: binding; conditions: normalized percent of control, tested at 5 μM concentration for 3 hours
Outline: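 Covalent modification was read by reverse-phase LC/MS of intact protein after compound exposure, each reaction stopped at its time point with 25 mM acetic acid. Unmodified-protein signal, taken as percent of total, was normalised to untreated protein and reported as POC.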

Row | SMILES | IC50 ([1]; Homo sapiens, NCI-H358, 3 h) [µM] | POC (KRas G12C) | IC50 [1] [µM] | POC (KRas G12C; 5 µM) | IC50 ([1]; Homo sapiens) [µM]
1 | C=CC(=O)N1CCN(c2nc(OC[C@@H]3C[C@@H](O)CN3C)nc3c2CCN(c2ccccc2C(F)(F)F)C3)CC1CC#N (stereo partly drawn) [Example 312, 2-[4-[2-[[(2S,4R)-4-hydroxy-1-methyl-pyrrolidin-2-yl]methoxy]-7-[2-(trifluoromethyl)phenyl]-6,8-dihydro-5H-pyrido[3,4-d]pyrimidin-4-yl]-1-prop-2-enoyl-piperazin-2-yl]acetonitrile] | 0.0001 to 1 | C (“C”>50% POC) | – | – | –
2 | C=CC(=O)N1CCN(c2nc(OC[C@@H]3CCCN3C)nc3c2CCN(c2nccc4ccccc24)C3)CC1CC#N (stereo partly drawn) [Example 289, 2-[4-[7-(1-isoquinolyl)-2-[[(2S)-1-methylpyrrolidin-2-yl]methoxy]-6,8-dihydro-5H-pyrido[3,4-d]pyrimidin-4-yl]-1-prop-2-enoyl-piperazin-2-yl]acetonitrile] | – | C (“C”>50% POC) | > 1 | – | –
3 | C=CC(=O)N1CCN(c2nc(OCCN(C)C)nc3c2CCN(c2cc(O)cc4ccccc24)C3)[C@@H](C)C1 [Example 116, (S)-1-(4-(2-(2-(dimethylamino)ethoxy)-7-(3-hydroxynaphthalen-1-yl)-5,6,7,8-tetrahydropyrido[3,4-d]pyrimidin-4-yl)-3-methylpiperazin-1-yl)prop-2-en-1-one] | 0.0001 to 1 | C (“C”>50% POC) | – | – | –
4 | C=CC(=O)N1CCN(c2nc(OCCCN3CCN(C)CC3)nc3c2CCN(c2cc(O)cc4ccccc24)C3)CC1 [Example 82, 1-(4-(7-(3-hydroxynaphthalen-1-yl)-2-(3-(4-methylpiperazin-1-yl)propoxy)-5,6,7,8-tetrahydropyrido[3,4-d]pyrimidin-4-yl)piperazin-1-yl)prop-2-en-1-one] | 0.0001 to 1 | C (“C”>50% POC) | – | – | –
5 | C=CC(=O)N1CCN(c2nc(OC[C@@H]3CCCN3C)nc3c2CCN(c2ccnc4ccccc24)C3)CC1CC#N (stereo partly drawn) [Example 278, 2-(1-acryloyl-4-(2-(((S)-1-methylpyrrolidin-2-yl)methoxy)-7-(quinolin-4-yl)-5,6,7,8-tetrahydropyrido[3,4-d]pyrimidin-4-yl)piperazin-2-yl)acetonitrile] | – | – | 0.0001 to 1 | C (“C”>50% POC) | –
6 | C=CC(=O)N1CCN(c2ncnc3c2CCN(c2cc(O)ccc2F)C3)CC1 [Example 5, 1-(4-(7-(2-fluoro-5-hydroxyphenyl)-5,6,7,8-tetrahydropyrido[3,4-d]pyrimidin-4-yl)piperazin-1-yl)prop-2-en-1-one] | > 1 | A (“A”≤25% POC) | – | – | –
7 | C=CC(=O)N1CCN(c2nc(OC[C@H]3C[C@H](O)CN3C)nc3c2CCN(c2cccc(F)c2C(F)(F)F)C3)CC1CC#N (stereo partly drawn) [Example 414, 2-(1-acryloyl-4-(7-(3-fluoro-2-(trifluoromethyl)phenyl)-2-(((2R,4S)-4-hydroxy-1-methylpyrrolidin-2-yl)methoxy)-5,6,7,8-tetrahydropyrido[3,4-d]pyrimidin-4-yl)piperazin-2-yl)acetonitrile] | 0.0001 to 1 | C (“C”>50% POC) | – | – | –
8 | C=CC(=O)N1CCN(c2nc(OCCCN3CCOCC3)nc3c2CCN(c2cc(O)cc4ccccc24)C3=O)CC1 [Example 121, 4-(4-acryloylpiperazin-1-yl)-7-(3-hydroxynaphthalen-1-yl)-2-(3-morpholinopropoxy)-6,7-dihydropyrido[3,4-d]pyrimidin-8(5H)-one] | – | C (“C”>50% POC) | – | – | > 1
9 | C=CC(=O)N1CCN(c2nc(OC[C@H]3C[C@H](O)CN3C)nc3c2CCN(c2cccc4ccccc24)C3)C[C@@H]1CC#N [Example 323, 2-[(2S)-4-[2-[[(2R,4S)-4-hydroxy-1-methyl-pyrrolidin-2-yl]methoxy]-7-(1-naphthyl)-6,8-dihydro-5H-pyrido[3,4-d]pyrimidin-4-yl]-1-prop-2-enoyl-piperazin-2-yl]acetonitrile] | 0.0001 to 1 | C (“C”>50% POC) | – | – | –
10 | C=CC(=O)N1CCN(c2nc(OC[C@@H]3CN(C)CCO3)nc3c2CCN(c2cccc4ccccc24)C3)CC1CC#N (stereo partly drawn) [Example 271, 2-(1-acryloyl-4-(2-(((S)-4-methylmorpholin-2-yl)methoxy)-7-(naphthalen-1-yl)-5,6,7,8-tetrahydropyrido[3,4-d]pyrimidin-4-yl)piperazin-2-yl)acetonitrile] | 0.0001 to 1 | C (“C”>50% POC) | – | – | –
11 | C=CC(=O)N1CCN(c2nc(OCCN3CCOCC3)nc3c2CCN(c2cc(O)cc4ccccc24)C3)CC1 [Example 117, 1-(4-(7-(3-hydroxynaphthalen-1-yl)-2-(2-morpholinoethoxy)-5,6,7,8-tetrahydropyrido[3,4-d]pyrimidin-4-yl)piperazin-1-yl)prop-2-en-1-one] | > 1 | C (“C”>50% POC) | – | – | –
12 | C=CC(=O)N1CCN(c2nc(OCCCCN3CCOCC3)nc3c2CCN(c2cc(O)cc4ccccc24)C3)CC1 [Example 35, 1-(4-(7-(3-hydroxynaphthalen-1-yl)-2-(4-morpholinobutoxy)-5,6,7,8-tetrahydropyrido[3,4-d]pyrimidin-4-yl)piperazin-1-yl)prop-2-en-1-one trifluoroacetate] | > 1 | C (“C”>50% POC) | – | – | –
13 | C=CC(=O)N1CCN(c2nc(OC[C@@H]3CCCN3C)nc3c2CCN(c2cccc(C)c2Cl)C3)C[C@@H]1CC#N [Example 424, 2-((S)-1-acryloyl-4-(7-(2-chloro-3-methylphenyl)-2-(((S)-1-methylpyrrolidin-2-yl)methoxy)-5,6,7,8-tetrahydropyrido[3,4-d]pyrimidin-4-yl)piperazin-2-yl)acetonitrile] | 0.0001 to 1 | C (“C”>50% POC) | – | – | –
14 | C=CC(=O)N1CCN(c2nc(OCCCN3CC4CC4C3)nc3c2CCN(c2cc(O)cc4ccccc24)C3)CC1 (centres unmarked) [Example 206, 1-(4-(2-(3-(3-azabicyclo[3.1.0]hexan-3-yl)propoxy)-7-(3-hydroxynaphthalen-1-yl)-5,6,7,8-tetrahydropyrido[3,4-d]pyrimidin-4-yl)piperazin-1-yl)prop-2-en-1-one] | – | C (“C”>50% POC) | – | – | 0.0001 to 1
15 | C=CC(=O)N1CCN(c2nc(OC[C@@H]3CCCN3C)nc3c2CCN(c2cc(O)cc4ccccc24)C3)[C@@H](C)C1 [Example 202, 1-((S)-4-(7-(3-hydroxynaphthalen-1-yl)-2-(((S)-1-methylpyrrolidin-2-yl)methoxy)-5,6,7,8-tetrahydropyrido[3,4-d]pyrimidin-4-yl)-3-methylpiperazin-1-yl)prop-2-en-1-one] | 0.0001 to 1 | C (“C”>50% POC) | – | – | –
16 | C=CC(=O)N1CCN(c2nc(OC(CO)CN3CCOCC3)nc3c2CCN(c2cc(O)cc4ccccc24)C3)CC1 (centres unmarked) [Example 217, 1-(4-(2-((1-hydroxy-3-morpholinopropan-2-yl)oxy)-7-(3-hydroxynaphthalen-1-yl)-5,6,7,8-tetrahydropyrido[3,4-d]pyrimidin-4-yl)piperazin-1-yl)prop-2-en-1-one] | > 1 | C (“C”>50% POC) | – | – | –
17 | C=CC(=O)N1CCN(c2nc(OC[C@H]3CCCN3C)nc3c2CCN(c2cccc4ccccc24)C3)CC1CC#N (stereo partly drawn) [Example 183, 2-[4-[2-[[(2R)-1-methylpyrrolidin-2-yl]methoxy]-7-(1-naphthyl)-6,8-dihydro-5H-pyrido[3,4-d]pyrimidin-4-yl]-1-prop-2-enoyl-piperazin-2-yl]acetonitrile] | – | C (“C”>50% POC) | – | – | 0.0001 to 1
18 | C=CC(=O)N1CCN(c2nc(OC[C@@H]3CCCN3C)nc3c2CCN(c2nccc4ccccc24)C3)CC1CC#N (stereo partly drawn) [Example 258, 2-[4-[7-(1-isoquinolyl)-2-[[(2S)-1-methylpyrrolidin-2-yl]methoxy]-6,8-dihydro-5H-pyrido[3,4-d]pyrimidin-4-yl]-1-prop-2-enoyl-piperazin-2-yl]acetonitrile] | > 1 | C (“C”>50% POC) | – | – | –
19 | C=CC(=O)N1CCN(c2nc(OCCCN3CCOCC3)nc3c2CCN(c2cc(O)cc4ccccc24)C3)CC1 [Example 74, 1-(4-(7-(3-hydroxynaphthalen-1-yl)-2-(3-morpholinopropoxy)-5,6,7,8-tetrahydropyrido[3,4-d]pyrimidin-4-yl)piperazin-1-yl)prop-2-en-1-one] | 0.0001 to 1 | C (“C”>50% POC) | – | – | –
20 | C=CC(=O)N1CCN(c2nc(OCCCN3CCOCC3)nc3c2CCN(c2cc(O)cc(C)c2C)C3)CC1 [Example 213, 1-(4-(7-(5-hydroxy-2,3-dimethylphenyl)-2-(3-morpholinopropoxy)-5,6,7,8-tetrahydropyrido[3,4-d]pyrimidin-4-yl)piperazin-1-yl)prop-2-en-1-one] | – | C (“C”>50% POC) | – | – | > 1
21 | C=CC(=O)N1CCN(c2nc(OCCN(C)CCOC)nc3c2CCN(c2cc(O)cc4ccccc24)C3)CC1 [Example 107, 1-(4-(7-(3-hydroxynaphthalen-1-yl)-2-(2-((2-methoxyethyl)(methyl)amino)ethoxy)-5,6,7,8-tetrahydropyrido[3,4-d]pyrimidin-4-yl)piperazin-1-yl)prop-2-en-1-one] | > 1 | C (“C”>50% POC) | – | – | –
22 | C=CC(=O)N1CCN(c2nc(OC[C@@H]3CCCN3C)nc3c2CCN(c2cc(O)cc4ccccc24)C3)C[C@@H]1CC#N [Example 317, 2-((S)-1-acryloyl-4-(7-(3-hydroxynaphthalen-1-yl)-2-(((S)-1-methylpyrrolidin-2-yl)methoxy)-5,6,7,8-tetrahydropyrido[3,4-d]pyrimidin-4-yl)piperazin-2-yl)acetonitrile] | 0.0001 to 1 | C (“C”>50% POC) | – | – | –
